Test results taken from ChEMBL document CHEMBL1201862, “PubChem BioAssay data set” (2004).
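A five-concentration, 48-hour dose response in 96-well plates underlies each endpoint, interpolated linearly between surrounding concentrations. The concentration for 50% growth inhibition is given as GI50.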 The source made the active and inactive calls. No stated cut-off is given here; in the data, active = GI50 up to about 1.1 µM and inactive = higher. Positions of bridges follow the written chain, without caps; N, C: chain ends. Non-standard residues stand in square brackets, D forms with d. Residues, ends and D or L forms follow the SMILES beside them. *: point of attachment. PhAc = O=C(Cc1ccccc1)*

Experiments:
Test in all cases: growth of human tumour cells (NCI), 48 h
786-0 = test system: 786-0
CCRF-CEM = test system: CCRF-CEM
HT-29 = test system: HT-29
Hs-578T = test system: Hs-578T
IGROV-1 = test system: IGROV-1
KM12 = test system: KM12
LOX IMVI = test system: LOX IMVI
M14 = test system: M14
MOLT-4 = test system: MOLT-4
NCI/ADR-RES = test system: NCI/ADR-RES
OVCAR-3 = test system: OVCAR-3
OVCAR-8 = test system: OVCAR-8
PC-3 = test system: PC-3
SK-MEL-5 = test system: SK-MEL-5
SK-OV-3 = test system: SK-OV-3
SN12C = test system: SN12C
SNB-19 = test system: SNB-19
TK-10 = test system: TK-10
UACC-257 = test system: UACC-257
UACC-62 = test system: UACC-62

Measured: GI50

CC(C)=NNc1ncnc2[nH]cnc12
inactive: 786-0 5.83 µM | CCRF-CEM 4.9 µM | HT-29 6.04 µM | Hs-578T 11.8 µM | IGROV-1 7.82 µM | KM12 5.33 µM | LOX IMVI 4.78 µM | M14 4.65 µM | MOLT-4 9.06 µM | NCI/ADR-RES 5.01 µM | OVCAR-3 5.78 µM | OVCAR-8 5.55 µM | PC-3 9.04 µM | SK-MEL-5 14.5 µM | SK-OV-3 3.88 µM | SN12C 14.5 µM | SNB-19 45.5 µM | TK-10 4.9 µM | UACC-257 10 µM | UACC-62 2.68 µM

COc1ccc(NC(=O)/C(CC2=Nc3ccc([N+](=O)[O-])cc3NC2O)=N\NC(=O)C[N+](C)(C)C)c(OC)c1 (stereo not given)
inactive: 786-0 30.1 µM | CCRF-CEM 40.3 µM | HT-29 > 100 µM | Hs-578T > 100 µM | IGROV-1 80.7 µM | KM12 89.7 µM | LOX IMVI 62.1 µM | M14 56.1 µM | MOLT-4 > 100 µM | NCI/ADR-RES 40.6 µM | OVCAR-3 > 100 µM | OVCAR-8 30.1 µM | PC-3 > 100 µM | SK-MEL-5 22.2 µM | SK-OV-3 89.9 µM | SN12C 61 µM | SNB-19 > 100 µM | TK-10 > 100 µM | UACC-257 > 100 µM | UACC-62 > 100 µM

CC(=O)Nc1ccc(/C=C/[N+](=O)[O-])cc1
inactive: 786-0 2.61 µM | CCRF-CEM 2.33 µM | HT-29 1.85 µM | Hs-578T 4.85 µM | IGROV-1 2.37 µM | KM12 5.68 µM | LOX IMVI 1.71 µM | M14 2.59 µM | MOLT-4 1.96 µM | NCI/ADR-RES 8.09 µM | OVCAR-3 2.98 µM | OVCAR-8 6.07 µM | PC-3 5.71 µM | SK-MEL-5 2.36 µM | SK-OV-3 8.93 µM | SN12C 3.37 µM | SNB-19 7.19 µM | TK-10 1.75 µM | UACC-257 5.21 µM | UACC-62 2 µM

O=C(Cc1ccccc1)N[C@@H]1COC(=O)[C@@H]2CCCN2C(=O)[C@@H]2CCCN2C1=O (PhAc-[dS]-Pro-Pro; ester 1-C)
inactive: 786-0 > 100 µM | CCRF-CEM > 100 µM | HT-29 > 100 µM | Hs-578T > 100 µM | IGROV-1 > 100 µM | KM12 > 100 µM | LOX IMVI > 100 µM | M14 > 100 µM | MOLT-4 > 100 µM | NCI/ADR-RES > 100 µM | OVCAR-3 > 100 µM | OVCAR-8 > 100 µM | PC-3 > 100 µM | SK-MEL-5 > 100 µM | SK-OV-3 > 100 µM | SN12C > 100 µM | SNB-19 > 100 µM | TK-10 > 100 µM | UACC-257 > 100 µM | UACC-62 > 100 µM
